Data reported in ChEMBL document CHEMBL1142640, “New natural product isolation and comparison of the secondary metabolite content of three distinct samples of the sea hare Aplysia dactylomela from tenerife” (J Nat Prod, 2000).
≈ marks a conversion by molar mass, not a printed value. Calls of active or inactive are those of the source. The rule behind the calls is not given here.

How the values were obtained:
[1] = test system: Microbotryum violaceum; assay: Antifungal activity against Microbotryum violaceae at 50 ug/disk; type: functional
[2] = test system: Aspergillus pseudoglaucus; assay: Antifungal activity against Eurotium repens at 50 ug/disk; type: functional
[3] = test system: Mycotypha microspora; assay: Antifungal activity against Mycotypha microspora at 50 ug/disk; type: functional
[4] = test system: Priestia megaterium; assay: Antibacterial activity against Bacillus megaterium at 50 ug/disk; type: functional
[5] = test system: Escherichia coli; assay: Antibacterial activity against Escherichia coli at 50 ug/disk; type: functional
[6] = test system: [Chlorella] fusca; assay: Antialgal activity against Chlorella fusca at 50 ug/disk; type: functional; conditions: Scenedesmus fuscus; for zone of inhibition at 50 µg/disc: read-out: IZ
[7] = test system: Fusarium oxysporum; assay: Antifungal activity against Fusarium oxysporum at 50 ug/disk; type: functional
[8] = test system: Artemia salina; assay: Toxicity in Artemia salina at 0.5 mg/mL after 48 hrs; type: organism-based; conditions: in vivo, 48 h
[9] = Cytotoxicity against human MEL28 cells; type: functional, cell-based; conditions: SK-MEL-28
[10] = test system: A549; assay: Cytotoxicity against human A549 cells; type: functional, cell-based
[11] = test system: HT-29; assay: Cytotoxicity against human HT29 cells; type: functional, cell-based
[12] = test system: P388; assay: Cytotoxicity against mouse P388 cells; type: functional, cell-based
[13] = test system: KB; assay: Cytotoxicity against human KB cells; type: functional, cell-based
[14] = test system: ZR-75-1; assay: Cytotoxicity against human ZR-75-1 cells; type: functional, cell-based
[15] = test system: Lu1; assay: Cytotoxicity against human Lu1 cells; type: functional, cell-based

SMILES	Activity [1]	Activity [2]	Activity [3]	Activity [4]	Activity [5]	Activity [6]	Activity [7]	Activity [8]	further results
CC1(C)C=CC(=O)[C@@](C)([C@H]2CC[C@](C)(Cl)[C@@H](Br)C2)O1 [CAESSPITENONE]	inactive	inactive	inactive	inactive	inactive	inactive	inactive	Not Active	
C=C1C[C@@H](O)[C@@H](Br)C(C)(C)[C@]12CC[C@](C)(Cl)[C@@H](Br)C2 [CARTILAGINEOL]									IC50 [9]: 1 µg/mL (≈ 2.41 µM); IC50 [10]: 1 µg/mL (≈ 2.41 µM); IC50 [11]: 0.25 µg/mL (≈ 0.603 µM); inhibition zone (IZ) [1]: inactive; IC50 [12]: 5 µg/mL (≈ 12.1 µM); inhibition zone (IZ) [2]: inactive; inhibition zone (IZ) [3]: inactive; inhibition zone (IZ) [4]: inactive; inhibition zone (IZ) [5]: inactive; inhibition zone (IZ) [6]: inactive; inhibition zone (IZ) [7]: inactive; inhibition zone (Toxicity) [8]: Not Active
C=C[C@@](C)(O)CC[C@H]1[C@](C)(CC[C@H](Br)C(C)(C)Cl)[C@@H]2CC[C@@]1(C)O2 [DACTYLOMELOL]	inactive	inactive	inactive	inactive	inactive	inactive	inactive	Not Active	
C=C[C@]1(C)CC[C@@H](Br)[C@](C)(CC[C@@H]2[C@@H](C)[C@]3(C)CC[C@@]2(C)O3)O1 [DACTYLOPYRANOID]	inactive	inactive	inactive	inactive	inactive	inactive	inactive	Not Active	
CCOC(=O)c1ccccc1C(=O)OCC [DIETHYL PHTHALATE]									zone of inhibition at 50 µg/disc [6]: 13 mm
Cc1cc([C@H]2CC[C@](C)(Cl)[C@@H](Br)C2)co1 [FUROCAESPITANE]	inactive	inactive	inactive	inactive	inactive	inactive	inactive	Not Active	
C=CC(C)(O)CC[C@@H]1C(=C)CC[C@@H]2C(C)(C)[C@H](Br)CC[C@@]12C (stereo not given in full) [ISOPINNATOL B]	inactive	inactive		inactive	inactive	inactive	inactive	Active	IC50 [13]: > 25 µg/mL; IC50 [14]: > 25 µg/mL; IC50 [15]: > 25 µg/mL
CC1=C([C@H]2CC[C@](C)(Cl)[C@@H](Br)C2)C[C@@H](Br)C(C)(C)O1 [LAUCAPYRANOID A]	inactive	inactive	inactive	inactive	inactive	inactive	inactive	Not Active	
Clc1ccc(COC(Cn2ccnc2)c2ccc(Cl)cc2Cl)c(Cl)c1 (stereo not given) [MICONAZOLE]									zone of inhibition at 50 µg/disc ([1]; read-out: IZ): 20 mm; zone of inhibition at 50 µg/disc ([2]; read-out: IZ): 3 mm; zone of inhibition at 50 µg/disc ([3]; read-out: IZ): 5 mm; zone of inhibition at 50 µg/disc ([4]; read-out: IZ): 10 mm; zone of inhibition at 50 µg/disc ([5]; read-out: IZ): 1 mm; zone of inhibition at 50 µg/disc [6]: 4 mm; zone of inhibition at 50 µg/disc ([7]; read-out: IZ): 32 mm
